This is an account of results in US20080249130A1, “Gut microsomal triglyceride transport protein inhibitors” (Sirtris Pharmaceuticals, Inc., priority 2007, published 2008).

The test system of assay [1] is secretion of ApoB by HepG2 cells. The assay is described as follows: ApoB secretion inhibition assay in HepG2 cells (ApoB ELISA). The format is cell-based, human. The following applies: Homo sapiens. The method, boiled down: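 HepG2 cells were serum-starved for 24 h, then treated for 24 h in DMEM with 1% BSA, 0.3 mM BSA-complexed oleic acid and 0.1% DMSO. Secreted ApoB in conditioned medium was measured by sandwich ELISA (A450). Viability was checked by AlamarBlue fluorescence.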
(In general: An ELISA detects its analyte on a solid surface through an enzyme-linked reagent.)

Assay [2] has as its target T1, MTP (Homo sapiens, UniProt P55157). Description: In vitro inhibition of MTP, triacylglycerol transfer assay with donor and acceptor liposomes (fluorescence). The format is biochemical. The protocol: This assay is commercially available (Cat. #D400, Chylos Inc., New York). Liposomes are pipetted in 5 μl aliquots into the wells of a black fluorescence microtiter plate, followed by addition of 5 μl of water and an incubation of 2-5 min to allow the samples to equilibrate to rt. Next, 5 μl of compound dissolved in DMSO is added to the vesicles. The reaction is initated by the addition of 5 μl MTP, followed by incubation for 30 min at room temperature. […] Time of incubation can be increased to measure low activity in different samples. In such situations, samples are prepared just prior to measuring fluorescence units. For this purpose, isopropanol is added to substrate vesicles about 5 min prior to fluorescence measurement as the fluorescence readings in isopropanol decrease with time.

The subject of a further assay is C57BL/6 male mice. The assay is described as follows: Murine food intake. Format: in vivo. The following applies: mice fasted overnight, 100 mg/kg PO, out through 6 hours. As to the method: C57BL/6 male mice, 18-22 grams (Wilmington, Mass. Charles River Labs), 10 mice per group, are fasted overnight (16 hrs). Mice are dosed PO at indicated dose (10 animals vehicle and 10 animals receive 100 mg/kg of test compound) and a preweighed amount of food is given to animals. Food is weighed every hour up to 6 hrs. Blood is collected at 2 to 6 hours.

In assay [3] the target is T1, MTP. Particulars: As referenced in Wetterau et al., Science 282: 751, 1998; read-out: gMTP IC50 Triacylglycerol Transfer Assay (Example 3); cited from earlier work.
Setting [4] is: HepG2, Table 6, assay of Example 2, read-out: IC50 ApoB Assay.
Setting [5] is: Table 6, assay of Example 3, read-out: IC50 Enzyme Assay.
Setting [6] is: HepG2, Tables 2-5, second symbol of the cell, read-out: IC50 Apo B Secretion Assay (Example 2).
The mark [7] stands for this setting: Tables 2-5, first symbol of the cell, read-out: IC50 Tri-acylglycerol (TAG) Transfer Assay (Example 3).

Values joined by “and” are separate entries in the source; they are usually repeats but may differ in a detail not shown here. Equal values may be shown once. Read-outs that look alike come from different tables or passages of the source.

T1 sequence (P55157 19-894, species assumed): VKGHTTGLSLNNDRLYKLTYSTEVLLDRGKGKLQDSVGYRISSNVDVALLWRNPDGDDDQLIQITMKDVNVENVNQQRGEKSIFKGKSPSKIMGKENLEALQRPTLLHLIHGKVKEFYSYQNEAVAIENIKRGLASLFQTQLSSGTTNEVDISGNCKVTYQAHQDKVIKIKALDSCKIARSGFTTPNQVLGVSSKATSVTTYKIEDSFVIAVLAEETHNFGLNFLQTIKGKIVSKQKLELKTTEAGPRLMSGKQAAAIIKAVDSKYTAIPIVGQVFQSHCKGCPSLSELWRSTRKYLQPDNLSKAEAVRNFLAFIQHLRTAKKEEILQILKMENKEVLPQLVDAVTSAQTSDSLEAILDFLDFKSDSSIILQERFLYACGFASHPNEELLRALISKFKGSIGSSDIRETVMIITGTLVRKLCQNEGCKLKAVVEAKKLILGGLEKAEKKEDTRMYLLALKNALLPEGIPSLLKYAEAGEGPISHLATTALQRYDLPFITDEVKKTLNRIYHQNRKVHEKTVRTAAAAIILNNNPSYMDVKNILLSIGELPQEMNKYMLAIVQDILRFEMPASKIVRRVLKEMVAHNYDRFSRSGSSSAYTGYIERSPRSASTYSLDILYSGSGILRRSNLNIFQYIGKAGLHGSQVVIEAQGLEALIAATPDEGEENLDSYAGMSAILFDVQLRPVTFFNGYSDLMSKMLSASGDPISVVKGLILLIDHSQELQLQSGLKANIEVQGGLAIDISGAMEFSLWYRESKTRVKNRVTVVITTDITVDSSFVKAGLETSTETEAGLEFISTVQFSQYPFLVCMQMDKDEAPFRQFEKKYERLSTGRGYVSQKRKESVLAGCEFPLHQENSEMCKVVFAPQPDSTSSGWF
T1 sequence (P07237 18-508 partner, species assumed): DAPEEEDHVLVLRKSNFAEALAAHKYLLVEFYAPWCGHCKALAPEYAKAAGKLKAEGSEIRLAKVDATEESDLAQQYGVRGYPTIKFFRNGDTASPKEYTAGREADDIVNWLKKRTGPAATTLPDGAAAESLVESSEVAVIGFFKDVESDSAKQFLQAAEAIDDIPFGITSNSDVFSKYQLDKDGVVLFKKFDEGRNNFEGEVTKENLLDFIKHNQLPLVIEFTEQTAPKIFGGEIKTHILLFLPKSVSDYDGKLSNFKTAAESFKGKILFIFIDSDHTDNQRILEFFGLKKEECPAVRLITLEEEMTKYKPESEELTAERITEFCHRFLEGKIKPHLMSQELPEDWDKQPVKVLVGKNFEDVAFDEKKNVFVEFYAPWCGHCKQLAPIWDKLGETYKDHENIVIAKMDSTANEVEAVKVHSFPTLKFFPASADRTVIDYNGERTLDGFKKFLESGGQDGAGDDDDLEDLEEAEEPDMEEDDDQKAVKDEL

Turning to `COc1cccc(C(=O)Nc2ccc3nc(C(=O)N[C@H](C(=O)N4CCCC4)c4ccccc4)sc3c2)c1-c1ccc(C(C)C)cc1` [Compound 84], the results for the IC50 (in assay [1] (setting [4]); at MTP [2] (setting [5])) were 1.1 nM and 3.6 nM, respectively.

In the case of `Cc1cccc(C(=O)Nc2ccc3nc(C(=O)N[C@H](C(=O)N4CCCC4)c4ccccc4)sc3c2)c1-c1ccc(C(C)C)cc1` [Compound 85], the IC50 (as a rule, the midpoint of a concentration-inhibition curve) was found to be 2.3 nM in assay [1] (setting [4]) and 5.1 nM at MTP [2] (setting [5]).

For the compound `Cc1cccc(C(=O)Nc2ccc3nc(C(=O)N[C@H](C(=O)N(C)Cc4ccc(F)cc4)c4ccccc4)sc3c2)c1-c1ccc(C(C)C)cc1` [Compound 86], the IC50 in assay [1] (setting [4]) is 1.5 nM; on MTP [2] (setting [5]) it was 9.9 nM and 5.2 nM.

For the compound `CN(Cc1ccc(F)cc1)C(=O)[C@@H](NC(=O)c1ccc2nc(NC(=O)c3ccccc3C3CCNCC3)ccc2c1)c1ccccc1` [Compound C1], the IC50 (in assay [1] (setting [6]); at MTP [2] (setting [7])) was more than 1010 nM in each case. Also, the “drop in food intake compared to control” value with C57BL/6 male mice is given as approximately 50%.

With `CN(Cc1ccc(F)cc1)C(=O)[C@@H](NC(=O)c1ccc2nc(NC(=O)c3ccccc3C3CCNC3)ccc2c1)c1ccccc1` (stereo partly shown) [Compound C3], the IC50 was more than 1010 nM in assay [1] (setting [6]) and 101 to 1000 nM on MTP [2] (setting [7]).

With `CN(Cc1ccc(F)cc1)C(=O)[C@@H](NC(=O)c1ccc2nc(NC(=O)c3ccccc3-c3cn4ccsc4n3)ccc2c1)c1ccccc1` [Compound C5], the IC50 (in assay [1] (setting [6]); on MTP [2] (setting [7])) was less than 100 nM throughout.

Take `O=C1C[C@@H](c2ccc(O)cc2)Oc2cc(O)cc(O)c21` [compound 1, Naringenin, reference compound]: the IC50 in assay [1] (HepG2, Table 1, HepG2 cells, read-out: gMTP IC50 ApoB Secretion Assay (Example 2)) was found to be 200000 nM. Moreover, the inhibition (in general, the percentage by which the read-out fell short of the control) at 200 µM in assay [1] (at 200 μM, HepG2 cells) is 50%; on MTP [2] (at 200 μM, read-out: inhibition in Triacylglycerol Transfer Assay (Example 3)), more than 90%. Besides, the “inhibition in Triacylglycerol Transfer Assay (Example 3)” value on MTP [2] (at 200 μM) is listed as more than 90% inhibitionat 200 μM.

Consider `O=C(NC1CCN(CCCCC2(C(=O)NCC(F)(F)F)c3ccccc3-c3ccccc32)CC1)c1ccccc1-c1ccc(C(F)(F)F)cc1` [compound 2, N-(2,2,2-trifluoroethyl)-9-(4-(4-(4′-(trifluoromethyl)biphenyl-2-ylcarboxamido)piperidin-1-yl)butyl)-9H-fluorene-9-carboxamide], for which, at MTP [3], the IC50 was 0.5 nM.

In the case of `CN(Cc1ccc(F)cc1)C(=O)[C@@H](NC(=O)C12CCC(CNC(=O)c3ccccc3-c3ccc(C(C)(C)C)cc3)(CC1)CC2)c1ccccc1` [drawing 120/drawing 118], the IC50 was 101 to 1000 nM in assay [1] (setting [6]) and less than 100 nM at MTP [2] (setting [7]).

Consider `CC(C)(C)c1ccc(-c2ccccc2C(=O)Nc2ccc3nc(C(=O)N[C@H](C(=O)N4CCCC4)c4ccccc4)sc3c2)cc1` [drawing 126/drawing 123], for which the IC50 (in assay [1] (setting [6]); at MTP [2] (setting [7])) was less than 100 nM throughout.
